The target of one assay is JAK2 (Homo sapiens (Human), UniProt O60674). The experiment in a line: Jak Biochemical HTRF Assay (JAK2). The settings on record: recombinant GST-tagged catalytic domain, [ATP] 8.5 μM. A general note: In TR-FRET formats the signal depends on donor and acceptor labels being close together.
The next assay has as its target JAK3 (Homo sapiens (Human), UniProt P52333). The experiment in a line: Jak Biochemical HTRF Assay (JAK3). The settings on record: recombinant GST-tagged catalytic domain, [ATP] 2.9 μM.

Chain of JAK2 (O60674 849-1124): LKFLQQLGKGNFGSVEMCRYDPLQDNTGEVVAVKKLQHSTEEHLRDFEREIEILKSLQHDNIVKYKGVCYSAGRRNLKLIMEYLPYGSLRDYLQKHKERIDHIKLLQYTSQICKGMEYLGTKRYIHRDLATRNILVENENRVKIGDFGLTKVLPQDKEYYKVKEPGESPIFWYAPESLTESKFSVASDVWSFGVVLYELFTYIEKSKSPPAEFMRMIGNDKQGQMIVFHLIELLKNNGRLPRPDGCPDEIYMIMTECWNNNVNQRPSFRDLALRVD
Chain of JAK3 (P52333 822-1111): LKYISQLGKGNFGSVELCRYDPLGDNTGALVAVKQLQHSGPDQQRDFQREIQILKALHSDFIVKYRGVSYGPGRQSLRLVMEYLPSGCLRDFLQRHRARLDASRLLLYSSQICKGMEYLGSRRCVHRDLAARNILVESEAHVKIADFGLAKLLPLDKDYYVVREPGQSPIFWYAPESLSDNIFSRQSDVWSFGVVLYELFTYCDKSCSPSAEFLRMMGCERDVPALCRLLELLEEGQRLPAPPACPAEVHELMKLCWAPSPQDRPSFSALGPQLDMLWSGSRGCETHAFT

Take `CCOC(=O)c1c[nH]c2ncnc(-c3cccc(NC(=O)/C=C/c4c[nH]c5ccccc45)c3)c12` [Example 5-19, ethyl 4-(3-{[(2E)-3-(1H-indo1-3-yl)prop-2-enoyl]amino}phenyl)-7H-pyrrolo[2,3-d]pyrimidine-5-carboxylate]: the IC50 – broadly, the concentration needed to halve the response being measured – at JAK2 is greater than 1500 nM; at JAK3, 2.4 nM.
For `CCOC(=O)c1c[nH]c2ncnc(-c3cccc(NC(=O)c4c[nH]c(=O)[nH]4)c3)c12` [Example 5-20, ethyl 4-(3-{[(2-oxo-2,3-dihydro-1H-imidazol-4-yl)carbonyl]amino}phenyl)-7H-pyrrolo[2,3-d]pyrimidine-5-carboxylate], the IC50 on JAK2 (given as range class) is greater than 500 nM; at JAK3 (given as range class), 10 to 500 nM.
In the case of `CCOC(=O)c1c[nH]c2ncnc(-c3cccc(NC(=O)/C=C/c4cccs4)c3)c12` [Example 5-21, ethyl 4-(3-{[(2E)-3-thiophen-2-ylprop-2-enoyl]amino}phenyl)-7H-pyrrolo[2,3-d]pyrimidine-5-carboxylate], the IC50 on JAK2 (given as range class) is greater than 500 nM; on JAK3 (given as range class), 10 to 500 nM.
Take `CCOC(=O)c1c[nH]c2ncnc(-c3cccc(NC(=O)/C=C/c4ccoc4)c3)c12` [Example 5-22, ethyl 4-(3-{[(2E)-3-furan-3-ylprop-2-enoyl]amino}phenyl)-7H-pyrrolo[2,3-d]pyrimidine-5-carboxylate]: the IC50 was greater than 500 nM on JAK2 (given as range class) and 10 to 500 nM on JAK3 (given as range class).
Consider `CCOC(=O)c1c[nH]c2ncnc(-c3cccc(NC(=O)/C=C\c4ccccc4OC)c3)c12` [Example 5-23, ethyl 4-(3-{[(2Z)-3-(2-methoxyphenyl)prop-2-enoyl]amino}phenyl)-7H-pyrrolo[2,3-d]pyrimidine-5-carboxylate], for which the IC50 on JAK2 (given as range class) was greater than 500 nM; at JAK3 (given as range class), 10 to 500 nM.
For `CCOC(=O)c1c[nH]c2ncnc(-c3cccc(NC(=O)/C=C/c4cccc(OC)c4)c3)c12` [Example 5-24, ethyl 4-(3-{[(2E)-3-(3-methoxyphenyl)prop-2-enoyl]amino}phenyl)-7H-pyrrolo[2,3-d]pyrimidine-5-carboxylate], the IC50 was greater than 500 nM on JAK2 (given as range class) and 10 to 500 nM on JAK3 (given as range class).
On to `CC/C=C(\C)C(=O)Nc1cccc(-c2ncnc3[nH]cc(C(=O)OCC)c23)c1` [Example 5-25, ethyl 4-(3-{[(2E)-2-methylpent-2-enoyl]amino}phenyl)-7H-pyrrolo[2,3-d]pyrimidine-5-carboxylate], for which the results for the IC50 at JAK2 (given as range class) and at JAK3 (given as range class) were greater than 500 nM and 10 to 500 nM, respectively.
Consider `CCOC(=O)c1c[nH]c2ncnc(-c3cccc(NC(=O)/C(F)=C/c4ccccc4)c3)c12` [Example 5-26, ethyl 4-(3-{[(2Z)-2-fluoro-3-phenylprop-2-enoyl]amino}phenyl)-7H-pyrrolo[2,3-d]pyrimidine-5-carboxylate], for which the IC50 at JAK2 (given as range class) is greater than 500 nM; on JAK3 (given as range class), 10 to 500 nM.
For `CCOC(=O)c1c[nH]c2ncnc(-c3cccc(NC(=O)C=C(C)C)c3)c12` [Example 5-27, ethyl 4-{3-[(3-methylbut-2-enoyl)amino]phenyl}-7H-pyrrolo[2,3-d]pyrimidine-5-carboxylate], the figures for the IC50 at JAK2 (given as range class) and at JAK3 (given as range class) were greater than 500 nM and 10 to 500 nM, respectively.
For `CCOC(=O)c1c[nH]c2ncnc(-c3cccc(NC(=O)/C=C/c4ccc(OC)cc4)c3)c12` [Example 5-29, ethyl 4-(3-{[(2E)-3-(4-methoxyphenyl)prop-2-enoyl]amino}phenyl)-7H-pyrrolo[2,3-d]pyrimidine-5-carboxylate] the same measures were greater than 500 nM and 10 to 500 nM.
With `CCOC(=O)c1c[nH]c2ncnc(-c3cccc(NC(=O)/C=C/c4cccnc4)c3)c12` [Example 5-30, ethyl 4-(3-{[(2E)-3-pyridin-3-ylprop-2-enoyl]amino}phenyl)-7H-pyrrolo[2,3-d]pyrimidine-5-carboxylate], the half-maximal inhibitory concentration (IC50) on JAK2 (given as range class) is greater than 500 nM; on JAK3 (given as range class), 10 to 500 nM.
On to `C/C=C(\C)C(=O)Nc1cccc(-c2ncnc3[nH]cc(C(=O)OCC)c23)c1` [Example 5-31, ethyl 4-(3-{[(2E)-2-methylbut-2-enoyl]aminol}phenyl)-7H-pyrrolo[2,3-d]pyrimidine-5-carboxylate], for which the IC50 on JAK2 (given as range class) is greater than 500 nM; on JAK3 (given as range class) it was 10 to 500 nM.

For the origin of these results see patent publication US8993756B2 (Merck Sharp & Dohme Corp., priority 2011, dated 2015).
